Legend:
CXCR1 = target: T1, CXCR1 (Homo sapiens, UniProt P25024); experiment: Multiplexed MembraneChip GPCR assay; type: binding; conditions: CXCR1 corral; 5 mM propranolol or 15 mM scopolamine
T1 construct: purchased Stratagene (La Jolla, Calif.)
T1 sequence (P25024 1-350): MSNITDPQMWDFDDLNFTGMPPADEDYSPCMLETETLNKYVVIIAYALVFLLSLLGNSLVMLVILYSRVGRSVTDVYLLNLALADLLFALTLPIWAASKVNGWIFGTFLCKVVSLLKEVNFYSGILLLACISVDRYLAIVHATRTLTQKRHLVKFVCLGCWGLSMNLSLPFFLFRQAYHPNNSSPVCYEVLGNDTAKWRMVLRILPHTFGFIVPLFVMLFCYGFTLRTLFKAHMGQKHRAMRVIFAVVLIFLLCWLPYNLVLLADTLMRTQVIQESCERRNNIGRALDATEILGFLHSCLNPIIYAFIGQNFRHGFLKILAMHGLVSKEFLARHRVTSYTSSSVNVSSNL

CXCR4 = CXCR4 (Homo sapiens, UniProt P61073); experiment: Multiplexed MembraneChip GPCR assay; type: binding; conditions: CXCR4 corral; 5 mM propranolol or 15 mM scopolamine
AR-β1 = target: T2, AR-β1 (Homo sapiens, UniProt P08588); experiment: Multiplexed MembraneChip GPCR assay; type: binding; conditions: 15 mM scopolamine
T2 construct: purchased Packard BioScience (Meriden, CT) 6110106

CXCR3 = target: T3, CXCR3 (Homo sapiens, UniProt P49682); experiment: Multiplexed MembraneChip GPCR assay; type: binding; conditions: CXCR3 corral; 5 mM propranolol or 15 mM scopolamine
T3 construct: purchased Stratagene (La Jolla, Calif.)
T3 sequence (P49682 1-368): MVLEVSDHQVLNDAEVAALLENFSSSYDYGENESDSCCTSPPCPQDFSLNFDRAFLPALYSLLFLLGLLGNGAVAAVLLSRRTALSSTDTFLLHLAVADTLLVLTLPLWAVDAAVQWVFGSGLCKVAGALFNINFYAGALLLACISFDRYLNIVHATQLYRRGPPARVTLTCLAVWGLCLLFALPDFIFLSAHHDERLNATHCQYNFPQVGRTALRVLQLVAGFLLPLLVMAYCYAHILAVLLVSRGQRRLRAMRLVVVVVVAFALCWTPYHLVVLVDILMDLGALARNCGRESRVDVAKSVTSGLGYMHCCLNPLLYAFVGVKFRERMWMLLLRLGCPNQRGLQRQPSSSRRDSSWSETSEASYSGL

[1] = MembraneChip lipid only control corral probed with fluorescent ligand; type: binding; conditions: for difference in BODIPY TMR CGP12177 fluorescence when competitor added: lipid only (negative) corral, 5 mM propranolol or 15 mM scopolamine
[2] = target: CXCR4 (CXC chemokine Receptor 4) (Homo sapiens, UniProt P61073); experiment: MembraneChip specificity of fluorescent ligand binding against another GPCR; conditions: CXCR4 chip probed with 15 μM BODIPY 558/568 Pirenzepine
CXCR4 (CXC chemokine Receptor 4), sequence (P61073 whole entry, species assumed): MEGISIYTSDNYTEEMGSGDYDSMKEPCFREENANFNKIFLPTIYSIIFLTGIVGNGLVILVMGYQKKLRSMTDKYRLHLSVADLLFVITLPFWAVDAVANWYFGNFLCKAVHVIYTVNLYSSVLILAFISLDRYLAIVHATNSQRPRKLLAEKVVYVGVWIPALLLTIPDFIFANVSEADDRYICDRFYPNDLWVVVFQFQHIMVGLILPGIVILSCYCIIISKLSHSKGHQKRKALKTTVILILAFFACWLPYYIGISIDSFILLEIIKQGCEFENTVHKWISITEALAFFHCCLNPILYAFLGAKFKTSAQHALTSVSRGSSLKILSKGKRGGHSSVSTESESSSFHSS

CXCR4, sequence (P61073 whole entry, species assumed): as above
T2 sequence (P08588 whole entry): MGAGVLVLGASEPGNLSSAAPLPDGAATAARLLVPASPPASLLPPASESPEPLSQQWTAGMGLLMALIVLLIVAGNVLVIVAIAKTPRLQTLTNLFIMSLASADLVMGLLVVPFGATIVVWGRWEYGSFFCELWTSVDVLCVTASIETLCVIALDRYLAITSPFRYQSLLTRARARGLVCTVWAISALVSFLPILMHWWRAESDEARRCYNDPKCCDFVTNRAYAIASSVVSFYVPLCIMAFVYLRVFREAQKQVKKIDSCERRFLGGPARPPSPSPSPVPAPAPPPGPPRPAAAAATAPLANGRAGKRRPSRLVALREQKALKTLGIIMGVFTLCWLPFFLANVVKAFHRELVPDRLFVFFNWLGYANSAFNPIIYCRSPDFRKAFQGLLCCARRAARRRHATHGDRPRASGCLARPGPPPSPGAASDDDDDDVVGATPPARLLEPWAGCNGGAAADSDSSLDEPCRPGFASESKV

Relative Fluorescence Units (RFU) ± standard deviation, CXCR4 [2]	SMILES	difference in BODIPY TMR CGP12177 fluorescence when competitor added (CXCR1)	difference in BODIPY TMR CGP12177 fluorescence when competitor added (CXCR4)	change in fluorescence of BODIPY TMR CGP12177 at AR-β1 (AR-β1)	difference in BODIPY TMR CGP12177 fluorescence when competitor added (CXCR3)	difference in BODIPY TMR CGP12177 fluorescence when competitor added [1]	Relative Fluorescence Units (RFU) ± standard deviation, Negative ([1]; lipid only corral probed with 15 μM BODIPY 558/568 Pirenzepine)
	CN1[C@@H]2C[C@@H](OC(=O)[C@H](CO)c3ccccc3)C[C@H]1[C@@H]1O[C@@H]12 [scopolamine]	only negligible differences	only negligible differences	Little decrease in fluorescence	only negligible differences	only negligible differences	
	CC(C)NCC(O)COc1cccc2ccccc12 (stereo not shown) [propranolol]	only negligible differences			only negligible differences	only negligible differences	
8,788 ± 3,137 RFU	O=C(CCc1ccc(/C=C2\C=CC(c3cccs3)=N2)n1B(F)F)NCCCCCCN1CCN(CC(=O)N2c3ccccc3C(=O)Nc3cccnc32)CC1 [BODIPY 558/568 Pirenzepine]						2,637 ± 1,846 RFU
